This is an account of results in ChEMBL document CHEMBL1134761, “A new concept for multidimensional selection of ligand conformations (MultiSelect) and multidimensional scoring (MultiScore) of protein-ligand binding affinities” (J Med Chem, 2001).

The target of one assay is T1, Interstitial collagenase (Homo sapiens, UniProt P03956).
T1 sequence (P03956 whole entry): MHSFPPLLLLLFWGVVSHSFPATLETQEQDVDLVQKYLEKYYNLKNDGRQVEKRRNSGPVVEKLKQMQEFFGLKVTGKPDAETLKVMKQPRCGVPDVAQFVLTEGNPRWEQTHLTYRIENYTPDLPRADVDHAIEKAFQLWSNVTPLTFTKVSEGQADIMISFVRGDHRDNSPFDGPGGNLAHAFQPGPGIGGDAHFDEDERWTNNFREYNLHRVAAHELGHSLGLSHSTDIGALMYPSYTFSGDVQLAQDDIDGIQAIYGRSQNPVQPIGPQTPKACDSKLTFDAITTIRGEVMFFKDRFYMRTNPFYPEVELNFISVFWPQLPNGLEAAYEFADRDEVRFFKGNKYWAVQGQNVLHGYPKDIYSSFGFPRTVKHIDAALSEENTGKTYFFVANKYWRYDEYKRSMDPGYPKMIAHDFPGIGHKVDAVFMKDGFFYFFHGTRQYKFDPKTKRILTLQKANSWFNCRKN
Put plainly: Inhibitory constant against matrix metalloprotease-1.

The target of a further assay is Stromelysin-1 (Homo sapiens, UniProt P08254). Kind of assay: Inhibitory constant against matrix metalloprotease-3.
Chain of Stromelysin-1 (P08254 whole entry): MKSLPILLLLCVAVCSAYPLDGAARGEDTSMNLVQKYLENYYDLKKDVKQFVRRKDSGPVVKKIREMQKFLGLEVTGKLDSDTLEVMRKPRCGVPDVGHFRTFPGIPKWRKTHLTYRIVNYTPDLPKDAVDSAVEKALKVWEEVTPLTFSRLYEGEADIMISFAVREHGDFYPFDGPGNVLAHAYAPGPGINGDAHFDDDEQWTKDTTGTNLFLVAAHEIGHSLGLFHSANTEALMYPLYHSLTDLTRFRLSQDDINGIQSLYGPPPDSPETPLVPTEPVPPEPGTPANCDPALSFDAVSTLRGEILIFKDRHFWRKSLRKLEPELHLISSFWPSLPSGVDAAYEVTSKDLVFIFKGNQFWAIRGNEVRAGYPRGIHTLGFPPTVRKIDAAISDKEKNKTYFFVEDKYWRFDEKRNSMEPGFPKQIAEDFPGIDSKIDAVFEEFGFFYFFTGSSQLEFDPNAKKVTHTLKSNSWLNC
In assay [1] the target is 72 kDa type IV collagenase (Homo sapiens, UniProt P08253). Kind of assay: Inhibitory constant against matrix metalloprotease-2.
Chain of 72 kDa type IV collagenase (P08253 whole entry): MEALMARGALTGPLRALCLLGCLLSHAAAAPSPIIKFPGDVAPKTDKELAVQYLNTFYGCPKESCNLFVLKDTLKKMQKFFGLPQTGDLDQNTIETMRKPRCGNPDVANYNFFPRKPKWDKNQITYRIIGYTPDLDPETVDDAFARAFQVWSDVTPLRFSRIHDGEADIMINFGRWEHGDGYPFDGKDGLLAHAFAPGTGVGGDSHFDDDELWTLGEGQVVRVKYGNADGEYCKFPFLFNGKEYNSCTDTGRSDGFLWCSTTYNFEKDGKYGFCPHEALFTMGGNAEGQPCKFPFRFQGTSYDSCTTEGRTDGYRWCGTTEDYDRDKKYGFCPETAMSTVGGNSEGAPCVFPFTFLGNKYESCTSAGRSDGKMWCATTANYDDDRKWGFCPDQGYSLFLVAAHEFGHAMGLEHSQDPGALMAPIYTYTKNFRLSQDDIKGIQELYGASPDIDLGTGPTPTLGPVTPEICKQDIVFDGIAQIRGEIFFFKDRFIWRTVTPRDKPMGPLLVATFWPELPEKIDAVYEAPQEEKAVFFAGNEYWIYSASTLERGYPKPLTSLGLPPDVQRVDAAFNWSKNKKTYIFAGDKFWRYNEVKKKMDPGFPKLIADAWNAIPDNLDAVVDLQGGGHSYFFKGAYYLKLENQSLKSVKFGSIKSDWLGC

Each structure is given as a SMILES string.

What is called Ki is the equilibrium dissociation constant of an inhibitor or competing ligand from its target. For `Cc1ccc(CCC[C@H](CC(=O)O)C(=O)N[C@@H](CC2CCCCC2)C(=O)NCCCCN2CCOCC2)cc1`, the Ki on Interstitial collagenase amounted to 100000 nM; at Stromelysin-1, 1600 nM.
As to `COC(=O)CCNC(=O)CCNC(=O)[C@H](CC1CCCCC1)NC(=O)[C@H](CCCc1ccc(Cl)cc1)CC(=O)NO`, the Ki on Interstitial collagenase is 135 nM; at Stromelysin-1, 0.96 nM; in assay [1] it was 0.01 nM.
Consider `O=C(C[C@@H](CCCc1ccccc1)C(=O)N[C@@H](CC1CCCCC1)C(=O)NCCC(=O)NCCc1ccc(S(=O)(=O)O)cc1)NO`, for which the Ki was found to be 942 nM at Interstitial collagenase, 81.5 nM at Stromelysin-1 and 0.59 nM in assay [1].
In the case of `O=C(C[C@@H](CCCc1ccc(Cl)cc1)C(=O)N[C@@H](CC1CCCCC1)C(=O)NCCC(=O)NCCCCN1CCOCC1)NO`, the figures for the Ki (on Interstitial collagenase; on Stromelysin-1; in assay [1]) were 313 nM, 2.39 nM and 0.03 nM, respectively.
The corresponding values for `Cc1ccc(CCC[C@H](CC(=O)NO)C(=O)N[C@@H](CC2CCCCC2)C(=O)NCCC(=O)NCCNS(=O)(=O)N2CCOCC2)cc1` are 385 nM, 2.75 nM and 0.03 nM.
For `O=C(O)CCNC(=O)CCNC(=O)[C@H](CC1CCCCC1)NC(=O)[C@H](CCCc1ccc(Cl)cc1)CC(=O)NO`, the figures for the Ki (at Interstitial collagenase; on Stromelysin-1; in assay [1]) were 193 nM, 0.8 nM and 0.01 nM, respectively.
For the compound `Cc1ccc(CCC[C@H](CC(=O)NO)C(=O)N[C@@H](CC2CCCCC2)C(=O)NCCC(=O)NCCCCN(C)C)cc1`, the Ki at Interstitial collagenase turned out to be 313 nM; at Stromelysin-1 it was 5.87 nM; in assay [1], 0.03 nM.
Consider `Cc1ccc(CCC[C@H](CC(=O)NO)C(=O)N[C@@H](CC2CCCCC2)C(=O)NCCC(=O)NCCCCN2CCOCC2)cc1`, for which the inhibition constant Ki worked out at 642 nM at Interstitial collagenase, 2.61 nM on Stromelysin-1 and 0.02 nM in assay [1].
`Cc1ccc(CCC[C@H](CP(=O)(O)O)C(=O)N[C@@H](CC2CCCCC2)C(=O)NCCc2ccccc2)cc1` returned a Ki at Interstitial collagenase of 17000 nM.
For `NS(=O)(=O)c1ccc(CCNC(=O)CCNC(=O)[C@H](CC2CCCCC2)NC(=O)[C@H](CCCc2ccc(Cl)cc2)CC(=O)NO)cc1`, the Ki at Interstitial collagenase stood at 382 nM; on Stromelysin-1 it was 6.35 nM; in assay [1], 0.01 nM.
Compound `COc1ccc(CCC[C@H](CC(=O)O)C(=O)N[C@@H](CC2CCCCC2)C(=O)NCCc2ccc(S(N)(=O)=O)cc2)cc1` displayed a Ki at Interstitial collagenase of 100000 nM.
Turning to `NC(=O)CCCNC(=O)[C@H](CC1CCCCC1)NC(=O)[C@H](CCCc1ccccc1)CC(=O)O`, on Stromelysin-1, the Ki amounted to 1090 nM.
As for `Cc1ccc(CCC[C@H](CC(=O)NO)C(=O)N[C@@H](CC2CCCCC2)C(=O)NCCC(=O)NCCN2CCOCC2)cc1`, the Ki at Interstitial collagenase was 455 nM; at Stromelysin-1 it was 6.26 nM; in assay [1], 0.01 nM.
The corresponding values for `O=C(C[C@@H](CCCc1ccc(Cl)cc1)C(=O)N[C@@H](CC1CCCCC1)C(=O)NCCC(=O)NCCC(=O)N1CCOCC1)NO` are 319 nM, 1.38 nM and 0.02 nM.
In the case of `O=C(C[C@@H](CCCc1ccc(Cl)cc1)C(=O)N[C@@H](CC1CCCCC1)C(=O)NCCC(=O)NCCNS(=O)(=O)N1CCOCC1)NO`, the figures for the Ki (on Interstitial collagenase; at Stromelysin-1; in assay [1]) were 302 nM, 1.73 nM and 0.01 nM, respectively.
The corresponding values for `CN(C)CCCCNC(=O)CCNC(=O)[C@H](CC1CCCCC1)NC(=O)[C@H](CCCc1ccc(Cl)cc1)CC(=O)NO` are 1050 nM, 22.2 nM and 0.05 nM.
The corresponding values for `Cc1ccc(CCC[C@H](CC(=O)NO)C(=O)N[C@@H](CC2CCCCC2)C(=O)NCCC(=O)NCCc2ccc(S(N)(=O)=O)cc2)cc1` are 329 nM, 2.98 nM and 0.02 nM.
